Measurements published in paper PMC6695839, “Interspecies Variation in NCMN-O-Demethylation in Liver Microsomes from Various Species” (Molecules, 2019).
Values joined by “and” are separate entries in the source; they are usually repeats but may differ in a detail not shown here. Equal entries are not always repeated.

Tests used:
Assay type in all cases: in vitro ADME
[1] = test system: cynomolgus monkey liver microsomes (CyLM); experiment: Kinetic analysis of NCMN-O-demethylation in cynomolgus monkey liver microsomes; settings: biphasic kinetics, substrate 1-150 µM
Experimental: (§1) The formation rates of NCHN were within the linear range of the protein concentration and incubation time. NCMN (1, 2.5, 5, 7.5, 10, 25, 50, 75, 100 and 150 µM) was incubated with HLM, MLM, RLM, DLM, PLM, CyLM (0.25mg protein/mL) as well as rat CYP1A2 (100 nM) for 30min. The apparent Km and Vmax values were determined by fitting the substrate concentrations versus the metabolite reaction velocities to the Michaelis-Menten equation (Equation (1)) and the Biphasic Kinetics equation (Equation (2)), and the results were graphically represented by Eadie-Hofstee plots. (1) v=Vmax[S]/Km+[S] (2) v=Vmax 1[S]/Kmax 1+[S]+Vmax 2[S]/Kmax 2+[S] where v is the rate of the reaction, Vmax is the maximum velocity estimate, Km is the substrate affinity constant, [S] is the substrate concentration.
(§2) The UFLC system consisted of a SIL-20ACHT auto sampler, a DGU-20A3 in-line degasser, a CBM-20A communications bus module, a CTO-20AC column oven, two LC-20AD pumps and an SPD-M20A photodiode array detector were used for analyzing the samples. The separation of NCMN and its metabolites was achieved on a Shim-pack XR-ODS (75 mm × 2.0 mm, 2.2 µm, Shimadzu, Kyoto, Japan) analytical column with an ODS guard column (5 mm × 2.0 mm, 2.2 µm, Shimadzu, Kyoto, Japan). The O-demethylation was quantified at the detector wavelength of 243 nm. […] The column oven was kept at 40 °C.

[2] = Kinetic analysis of NCMN-O-demethylation in beagle dog liver microsomes; settings: beagle, dog, beagle dog liver microsomes, pH 7.4; DLM; Michaelis-Menten; substrate 1-150 µM; read-out: Km1 (Km) of NCMN-O-demethylation
Experimental: as §1, §2

[3] = test system: beagle dog liver microsomes (DLM); experiment: as above; settings: Michaelis-Menten, substrate 1-150 µM
Experimental: as §1, §2

[4] = test system: rat liver microsomes (RLM); experiment: Kinetic analysis of NCMN-O-demethylation in rat liver microsomes; settings: biphasic kinetics, substrate 1-150 µM
Experimental: as §1, §2

[5] = test system: minipig liver microsomes (PLM); experiment: Kinetic analysis of NCMN-O-demethylation in minipig liver microsomes; settings: biphasic kinetics, substrate 1-150 µM
Experimental: as §1, §2

[6] = Kinetic analysis of NCMN-O-demethylation in mouse liver microsomes; settings: mouse, mouse liver microsomes, pH 7.4; MLM; Michaelis-Menten; substrate 1-150 µM; read-out: Km1 (Km) of NCMN-O-demethylation
Experimental: as §1, §2

[7] = test system: mouse liver microsomes (MLM); experiment: as above; settings: Michaelis-Menten, substrate 1-150 µM
Experimental: as §1, §2

[8] = Kinetic analysis of NCMN-O-demethylation in human liver microsomes; settings: human, human liver microsomes, pH 7.4; HLM; Michaelis-Menten; substrate 1-150 µM; read-out: Km1 (Km) of NCMN-O-demethylation
Experimental: as §1, §2

[9] = test system: human liver microsomes (HLM); experiment: as above; settings: Michaelis-Menten, substrate 1-150 µM
Experimental: as §1, §2

Km at 30 min [2]: 61.8 ± 3.52 µM
Km at 30 min [6]: 22.8 ± 1.22 µM
Km at 30 min [8]: 9.54 ± 0.24 µM
Compound: COc1ccc2c3c(cccc13)C(=O)N(CCCC(=O)O)C2=O [NCMN, N-(3-carboxypropyl)-4-methoxy-1,8-naphthalimide]
Km1 of NCMN-O-demethylation [1]: 198.70 ± 39.66 µM
Km2 of NCMN-O-demethylation [1]: 0.18 ± 0.09 µM
Vm1 of NCMN-O-demethylation [1]: 8.43 ± 0.91 nmol/min/mg
Vm2 of NCMN-O-demethylation [1]: 0.28 ± 0.08 nmol/min/mg
Vm1 (Vmax) of NCMN-O-demethylation [3]: 13.53 ± 0.34 nmol/min/mg
Km1 of NCMN-O-demethylation [4]: 1134.00 µM and 1134.00 ± 482.10 µM
Km2 of NCMN-O-demethylation [4]: 5.66 ± 0.80 µM
Vm1 of NCMN-O-demethylation [4]: 78.42 ± 31.17 nmol/min/mg
Vm2 of NCMN-O-demethylation [4]: 5.71 ± 0.45 nmol/min/mg
Km1 of NCMN-O-demethylation [5]: 242.80 ± 111.80 µM
Km2 of NCMN-O-demethylation [5]: 5.70 ± 3.27 µM
Vm1 of NCMN-O-demethylation [5]: 28.22 ± 5.82 nmol/min/mg
Vm2 of NCMN-O-demethylation [5]: 3.35 ± 1.20 nmol/min/mg
Vm1 (Vmax) of NCMN-O-demethylation [7]: 33.17 ± 0.42 nmol/min/mg
Vm1 (Vmax) of NCMN-O-demethylation [9]: 25.61 ± 0.15 nmol/min/mg
